The data set can be described thus: Crystallization onset of supersaturated solution stirred at 20° C., followed in a Crystalline PV device with CCD cameras. In kind it is physicochemical. How it is done: (§1) A concentrated solution 2 of (S)-1-(3-(((4-amino-2,2-dioxido-1H-benzo[c][1,2,6]thiadiazin-5-yl)oxy)methyl)piperidin-1-yl)-3-methylbutan-1-one at 1% (w/w) (10000 ppm) was prepared in water. The pH was adjusted to 11 using NaOH to form the (S)-1-(3-(((4-amino-2,2-dioxido-1H-benzo[c][1,2,6]thiadiazin-5-yl)oxy)methyl)piperidin-1-yl)-3-methylbutan-1-one sodium salt, and a homogeneous solution was obtained. Next, a syrup was prepared by mixing an aqueous solution of HFCS, citric acid and deionized water. […] of 100 ppm of (S)-1-(3-(((4-amino-2,2-dioxido-1H-benzo[c][1,2,6]thiadiazin-5-yl)oxy)methyl)piperidin-1-yl)-3-methylbutan-1-one, i.e. about 15 times above the intrinsic solubility of the compound at 20° C. The sample was stirred at 20° C. and crystallization was followed in a Crystalline PV device equipped with CCD cameras. Crystallization started after about 530 minutes.
as §1, with “acid, HydroxyPropyl Cellulose (HPC) 100k” for “acid”, “deionized water. The final syrup contained 43% fructose, 1% citric acid, 0.05% HPC and 55.95%” for “deionized”, “cameras.” for “cameras. Crystallization started after about 530 minutes.”
A concentrated solution 2 of (S)-1-(3-(((4-amino-2,2-dioxido-1H-benzo[c][1,2,6]thiadiazin-5-yl)oxy)methyl)piperidin-1-yl)-3-methylbutan-1-one at 1% (w/w) (10000 ppm) was prepared in water. The pH was adjusted to 11 using NaOH to form the (S)-1-(3-(((4-amino-2,2-dioxido-1H-benzo[c][1,2,6]thiadiazin-5-yl)oxy)methyl)piperidin-1-yl)-3-methylbutan-1-one sodium salt, and a homogeneous solution was obtained. Next, a citric acid buffer solution was prepared by mixing 50 mM citric acid in deionised water (pH=2.8). An aliquot of solution 2 was diluted 100 times with the buffer solution to yield a final concentration of 100 ppm of (S)-1-(3-(((4-amino-2,2-dioxido-1H-benzo[c][1,2,6]thiadiazin-5-yl)oxy)methyl)piperidin-1-yl)-3-methylbutan-1-one, i.e. about 15 times above the intrinsic solubility of the compound at 20° C. The sample was stirred at 20° C. and crystallization was followed in a Crystalline PV device equipped with CCD cameras.
A concentrated solution 2 of (S)-1-(3-(((4-amino-2,2-dioxido-1H-benzo[c][1,2,6]thiadiazin-5-yl)oxy)methyl)piperidin-1-yl)-3-methylbutan-1-one at 1% (w/w) (10000 ppm) was prepared in water. The pH was adjusted to 11 using NaOH to form the (S)-1-(3-(((4-amino-2,2-dioxido-1H-benzo[c][1,2,6]thiadiazin-5-yl)oxy)methyl)piperidin-1-yl)-3-methylbutan-1-one sodium salt, and a homogeneous solution was obtained. Next, a citric acid buffer solution was prepared by mixing 50 mM citric acid and carboxymethyl cellulose (CMC) in deionised water (pH=2.8). The final water solution contained 50 mM citric acid and 0.05% CMC. […]

Consider 1 molecule from patent US20170188607A1, “SOLUBILIZATION OF A SWEET MODULATOR AND FLAVOR” (Firmenich SA, priority 2014, published 2017).

`CC(C)CC(=O)N1CCC[C@H](COc2cccc3c2C(N)=NS(=O)(=O)N3)C1` [(S)-1-(3-(((4-amino-2,2-dioxido-1H-benzo[c][1,2,6]thiadiazin-5-yl)oxy)methyl)piperidin-1-yl)-3-methylbutan-1-one]: the “time until crystallization started” value (Example 5 (comparative): 100 ppm, syrup 43 Brix (43% fructose, 1% citric acid), no polymer) is recorded as “about 530 minutes”. The “time until first crystals were observed” value reads like this: (Example 6: 100 ppm, syrup 43 Brix with 0.05% HPC 100k) “about 3520 minutes”; (Example 7 (comparative): 100 ppm, 50 mM citric acid buffer pH 2.8, no polymer) “about 166 minutes”; (Example 8: 100 ppm, 50 mM citric acid buffer pH 2.8 with 0.05% CMC) “about 466 minutes”. In addition, the crystallization observation entry (Example 9: 100 ppm, syrup 43 Brix with 0.05% HPMC 100k) is reported as “No crystallization was observed after seven days”.
